{"source": "patent US10239830B2", "about": "“Benzenesulfonamide upregulators of NPC1 for Neimann-Pick disease and other lysosomal storage disorders” (ICAHN SCHOOL OF MEDICINE AT MOUNT SINAI, priority 2015, dated 2019)", "key": {"[1]": {"test": "Blood-brain barrier (BBB) penetration in C57BL6 mice", "format": "in vivo", "conditions": "C57BL6, mouse, subcutaneous, 30 mg/kg injection, at one hour", "method": "The ability of compounds of the invention to penetrate the blood-brain barrier (BBB) may be assessed by the following protocol: C57BL6 mice were injected with 30 mg/kg of test compound subcutaneously. Two hours following injection mice were sacrificed and tissues isolated, rinsed with cold saline, dried on filtrate paper, weighed and snap frozen by placing into dry-ice. Samples were stored in 48-well plates (Whatman™ 7701-5500 UNIPLATE™ 48-Well×5 mL Assay Collection & Analysis Microplate, Polypropylene with Rectangular Well & Flat Bottom) at −80° C. until the assay. For the assay, three volumes of water were added to each brain sample and the sample was homogenized using SPEX Geno/Grinder. Ten calibration standards (1.0-1000 ng/mL) were prepared in the control blank brain homogenate. Two hundred μL of IS/acetonitrile/MeOH was added to the respective wells of 2-mL 96-well plate and […] of homogenated tissue samples were pipetted into a respective wells of 2-mL 96-well plate. The plate was capped and vortexed using the pulsing vortex mixer for 5 minutes, then centrifuged for 30 min at 4° C. and 3000 rpm. One hundred fifty μL of supernatant was transferred to a […], Waters 96-well plate using Tecan and 1.0 μL of supernatant was injected into UPLC-MS/MS. […]"}, "NPC1 promoter": {"system": "NPC1 promoter", "test": "Confirmation Assay of NPC1 Promoter Activators: Renilla Luciferase (Huh7)", "format": "cell-based, human", "conditions": "Homo sapiens, Huh-7, 24 hours", "method": "Confirmation Assay of NPC1 Promoter Activators: Renilla Luciferase. The confirmation assay was carried out using an assay in which the NPC1 promoter drives the expression of a different luciferase protein from the one used in the primary screen. The NPC1 promoter was cloned in front of the renilla luciferase reporter gene. NPC1 promoter activation results in renilla luciferase expression. This vector was used to generate Huh7 cell lines stably expressing the NPC1-renilla luciferase vector. These cells were propagated and maintained in medium containing RPMI-1640 supplemented with 10% FBS, 2 mM L-glutamine, and 50 μg/mL penicillin/streptomycin. Cells were plated for assays in OPTI-MEM I reduced-serum medium supplemented with 10% FBS at 1,500 cells/well in 5 μL in 1,536-well white opaque plates and then 23 nL/well of compound in DMSO solution were added through pin transfer. The assay plates were incubated at 37° C. for 24 hours. The Amplite luciferase reporter gene assay kit was purchased from ABD Bioquest and prepared/stored according to manufacturer's recommendations. Luminescence signal was measured in a ViewLux plate reader (Perkin Elmer) after a 10 minute incubation at room temperature."}}, "note": "Where two headings read alike, the source gives them in different places.", "data": [{"smiles": "COc1ccc(NC(=O)c2cnccc2C)cc1S(=O)(=O)Nc1ccc(Br)cc1", "note": "[Example 50]", "values": [{"measurement": "concentration at 1 h", "setting": "[1]; brain, read-out: brain concentration", "result": "~200", "unit": "ng/mL"}, {"measurement": "concentration at 1 h", "setting": "[1]; plasma, read-out: plasma concentration", "result": "~3000", "unit": "ng/mL"}, {"measurement": "EC50", "setting": "NPC1 promoter", "result": 1100, "unit": "nM"}, {"measurement": "Emax", "setting": "NPC1 promoter; read-out: NPC1-renilla Eff.", "result": 195, "unit": "%"}]}]}
